Data on 13 compounds can be found in PubChem BioAssay (NCI).

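Cells were grown in 96-well plates and exposed to each compound for 48 hours at five concentrations; endpoints were interpolated linearly between bracketing concentrations, or set to the highest concentration if not reached. The concentration for full growth arrest is given as TGI.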 Calls of active or inactive are those of the source. Rule as the data show it: active = GI50 below about 0.43 µM; inactive = the rest.

For one test, the system named is P388 leukemia. As to the kind of experiment: NCI tumour cell line growth inhibition, 48 h.
On to `C/C(=N\NC(=S)N1CCN(c2ccccn2)CC1)c1ncccn1`, for which the TGI stood at 0.0153 µM.

A further test concerns P388/ADR leukemia. As to the kind of experiment: NCI tumour cell line growth inhibition, 48 h.
Turning to `C/C(=N\NC(=S)N1CCN(c2ccccn2)CC1)c1ncccn1`, the TGI is 0.0154 µM.

The test system of a further test is RXF-631 renal. As to the kind of experiment: NCI tumour cell line growth inhibition, 48 h.
`N#C/C(=C1\OC(=N)C(c2ccc(Cl)cc2Cl)C1=O)c1ccc(Cl)cc1Cl` (stereo not given) yielded a TGI above 100 µM.
On the same count and under the same terms, to `O=C(CO)C1CC2C=CC1C2` (stereo not given) belongs above 100 µM.
Consider `COc1c(OC(C)C)cc2cc(O)c(C(=O)NC3Cc4ccc(c(Cl)n4)O[C@@H]4C=C5C#C/C(=C\C#CC6OC56C4OC4CC(C)(O)C(O)C(C)O4)C(OC4CC(O)C(N(C)C)C(C)O4)COC3=O)cc2c1OC` (stereo not given in full), for which the result was inactive.
`COc1c(CC=C(C)C)c(O)c(C(CC(C)C)c2c(O)c(CC=C(C)C)c(O)c(C(C)=O)c2O)c(O)c1C(C)=O` (stereo not given) returned a TGI of 6.94 µM.
Take `C[P+]1(c2ccccc2)CCCCC1`: the TGI was above 100 µM.
Take `CC1CCC2(C)C(CC=C(C=O)C2(O)C=O)C12CO2` (stereo not given): the TGI was 5.77 µM.
On the same count and under the same terms, next, `O=C(Cc1ccccc1)C(c1ccccc1)S(=O)(=O)c1ccccc1` (stereo not given): above 100 µM; `c1ccc(-c2csc3ncn4cnnc4c23)cc1`: above 100 µM.
`CCOC(=O)C(CCCNC(=O)OC(C)(C)C)N(Cc1ccc(OC)cc1OC)C(=O)CC(=O)CP(=O)(OCC)OCC` (stereo not given) gave a TGI above 100 µM.
On the same count and under the same terms, to `c1ccc(CN2COc3c(ccc4c5c(ccc34)CN(Cc3ccccc3)CO5)C2)cc1` belongs above 100 µM; to `C/C(=N\NC(=O)C(N)=O)c1c(O)cc(C)oc1=O`, above 100 µM; to `C=C1C=CC2(Br)OC3CC(C)(Cl)C(Br)CC13C2(C)C` (stereo not given), above 100 µM.

The subject of a further test is SN12K1 renal. In words: NCI tumour cell line growth inhibition, 48 h.
Take `C/C(=N\NC(=S)N1CCN(c2ccccn2)CC1)c1ncccn1`: the TGI turned out to be 1.61 µM.
